According to patent publication US20230355622A1, “METHODS OF CHEMOVACCINATION AGAINST PLASMODIUM INFECTIONS” (Merck Sharp & Dohme LLC, priority 2020, published 2023):

These molecules were tested on parasite (assay: Parasite LDH growth assay (Parasite Assay), antiparasite potency). Settings: 72 h, parasite LDH growth assay, ring stage parasites, 72 hours incubation at 37° C.; read-out: EC50.
Format: cell-based
Protocol: Assessing Antiparasite Potency in a Parasite LDH Growth Assay (Parasite Assay)
The parasite stock was maintained at 4% haematocrit in RPMI-Hepes media buffered with sodium bicarbonate and supplemented with 5% heat inactivated human serum and 0.5% albumax.
On the day of assay set up, a blood smear of the parasite culture was Giemsa stained and counted. The parasitemia was adjusted to 0.7% rings and the haematocrit was diluted to 2% in RPMI-Hepes media buffered with sodium bicarbonate and supplemented with 5% heat inactivated human serum and 0.5% albumax. 30 ul of diluted parasites are then added into 10 ul of media+compound in pre-prepared Greiner TC assay plates. Parasite assay plates were placed in gassed humidified boxes in single layer and allowed to incubate at 37° C. for 72 hours. After 72 hours growth, assay plates are sealed with parafilm and frozen flat, in single file at −80° C. overnight. On the following day, assay plates are allowed to thaw at room temperature for 4 hours to which an LDH assay is performed to measure parasite growth.

| Structure (SMILES) | EC50 [nM] |
| --- | --- |
| CCC1(CC)CC(=O)N([C@H]2c3cc(C(=O)N[C@H]4CC(C)(C)Oc5ccccc54)ccc3OC[C@@H]2OC)C(=N)N1 [Example 68A, (3R,4S)-4-(4,4-diethyl-2-imino-6-oxotetrahydropyrimidin-1(2H)-yl)-N-((S)-2,2-dimethylchroman-4-yl)-3-methoxychromane-6-carboxamide] | 1 |
| CCC1(CC)CC(=O)N([C@@H]2Cc3ccc(C(=O)N[C@@H]4c5ccccc5C[C@H]4O)cc32)C(=N)N1 [Example 83, (8R)-8-(4,4-diethyl-2-imino-6-oxo-hexahydropyrimidin-1-yl)-N-[(1R,2R)-2-hydroxyindan-1-yl]bicyclo[4.2.0]octa-1(6),2,4-triene-3-carboxamide] | 20 |
| CC1(C)CC(=O)N([C@@H]2CCc3ccc(C(=O)N[C@H]4CC(C)(C)Oc5ccccc54)cc32)C(=N)N1 [Example 84, (3R)-N-[(4S)-2,2-dimethylchroman-4-yl]-3-(2-imino-4,4-dimethyl-6-oxo-hexahydropyrimidin-1-yl)indane-5-carboxamide] | 0.9 |
| CC1(C)CC(=O)N(C2c3cc(C(=O)N[C@@H]4c5ccccc5C[C@H]4O)ccc3CC2(C)C)C(=N)N1 (stereo partly drawn) [Example 87, N-[(1R,2R)-2-hydroxyindan-1-yl]-3-(2-imino-4,4-dimethyl-6-oxo-hexahydropyrimidin-1-yl)-2,2-dimethyl-indane-5-carboxamide] | 105 |
| C[C@@H]1C[C@@H](N2C(=N)NC(C)(C)CC2=O)c2cc(C(=O)N[C@@H]3c4ccccc4OC[C@@]3(C)O)ccc21 [Example 104, (1R,3R)-N-[(3S,4R)-3-hydroxy-3-methyl-chroman-4-yl]-3-(2-imino-4,4-dimethyl-6-oxo-hexahydropyrimidin-1-yl)-1-methyl-indane-5-carboxamide] | 5 |
| COC1COc2ccc(C(=O)N[C@@H]3c4ccccc4C[C@H]3O)cc2C1N1C(=N)NC(C)(C)CC1=O (stereo partly drawn) [Example 110, N-[(1R,2R)-2-hydroxyindan-1-yl]-4-(2-imino-4,4-dimethyl-6-oxo-hexahydropyrimidin-1-yl)-3-methoxy-chromane-6-carboxamide] | 60 |
| CCC1(CC)CC(=O)N([C@@H]2CCOc3ccc(C(=O)N[C@@H](C)c4ccccc4OC)cc32)C(=N)N1 [Example 111, (4R)-4-(4,4-diethyl-2-imino-6-oxo-hexahydropyrimidin-1-yl)-N-[(1S)-1-(2-methoxyphenyl)ethyl]chromane-6-carboxamide] | 90 |
| CCC1(CC)CC(=O)N([C@H]2c3cc(C(=O)N[C@@H]4c5ccccc5C[C@H]4O)ccc3OC[C@H]2C)C(=N)N1 [Example 118, (3S,4R)-4-(4,4-diethyl-2-imino-6-oxo-hexahydropyrimidin-1-yl)-N-[(1R,2R)-2-hydroxyindan-1-yl]-3-methyl-chromane-6-carboxamide] | 0.9 |
| CCC1(CC)CC(=O)N([C@H]2c3cc(C(=O)N[C@@H]4c5ccccc5C[C@H]4O)ccc3OC[C@@H]2C)C(=N)N1 [Example 120, (3R,4R)-4-(4,4-diethyl-2-imino-6-oxo-hexahydropyrimidin-1-yl)-N-[(1R,2R)-2-hydroxyindan-1-yl]-3-methyl-chromane-6-carboxamide] | 0.8 |
| CC[C@]1(C)CC(=O)N([C@@H]2CCc3ccc(C(=O)N[C@@H]4c5ccccc5OC(C)(C)[C@H]4O)cc32)C(=N)N1 [Example 121, (3R)-3-[(4R)-4-ethyl-2-imino-4-methyl-6-oxo-hexahydropyrimidin-1-yl]-N-[(3S,4R)-3-hydroxy-2,2-dimethyl-chroman-4-yl]indane-5-carboxamide] | 0.6 |
| CC[C@]1(C)CC(=O)N([C@@H]2C[C@@H](C)c3ccc(C(=O)N[C@@H]4c5ccccc5OC[C@@]4(C)O)cc32)C(=N)N1 [Example 131, (1R,3R)-3-[(4R)-4-ethyl-2-imino-4-methyl-6-oxo-hexahydropyrimidin-1-yl]-N-[(3S,4R)-3-hydroxy-3-methyl-chroman-4-yl]-1-methyl-indane-5-carboxamide] | 2 |
| C[C@@H]1Cc2ccc(C(=O)N[C@@H]3c4ccccc4OC(C)(C)[C@H]3O)cc2[C@@H]1N1C(=N)NC(C)(C)CC1=O [Example 135, (2R,3R)-N-[(3S,4R)-3-hydroxy-2,2-dimethyl-chroman-4-yl]-3-(2-imino-4,4-dimethyl-6-oxo-hexahydropyrimidin-1-yl)-2-methyl-indane-5-carboxamide] | 0.9 |
| C[C@@H]1C[C@@H](N2C(=N)NC(C)(C)CC2=O)c2cc(C(=O)N[C@@H]3c4ccccc4OC(C)(C)[C@H]3O)ccc21 [Example 138, (1R,3R)-N-[(3S,4R)-3-hydroxy-2,2-dimethyl-chroman-4-yl]-3-(2-imino-4,4-dimethyl-6-oxo-hexahydropyrimidin-1-yl)-1-methyl-indane-5-carboxamide] | 0.9 |
| CCC1(CC)CC(=O)N([C@@H]2CCOc3ccc(C(=O)N[C@@H]4c5ccccc5C5(CC5)[C@H]4O)cc32)C(=N)N1 [Example 154, (4R)-4-(4,4-diethyl-2-imino-6-oxo-hexahydropyrimidin-1-yl)-N-[(1′R,2′R)-2′-hydroxyspiro[cyclopropane-1,3′-indane]-1′-yl]chromane-6-carboxamide] | 0.7 |
| CCC1(CC)CC(=O)N([C@@H]2C[C@H](OC)c3ccc(C(=O)N[C@@H]4c5ccccc5C[C@@]4(C)O)cc32)C(=N)N1 [Example 158, (1S,3R)-3-(4,4-diethyl-2-imino-6-oxo-hexahydropyrimidin-1-yl)-N-[(1R,2R)-2-hydroxy-2-methyl-indan-1-yl]-1-methoxy-indane-5-carboxamide] | 0.9 |
| CCC1(CC)CC(=O)N([C@@H]2CCc3ccc(C(=O)N[C@@H]4c5ccccc5OC(C)(C)[C@H]4O)cc32)C(=N)N1 [Example 159, (3R)-3-(4,4-diethyl-2-imino-6-oxo-hexahydropyrimidin-1-yl)-N-[(3S,4R)-3-hydroxy-2,2-dimethyl-chroman-4-yl]indane-5-carboxamide] | 0.5 |
| CCC1(CC)CC(=O)N(C2CCCc3ccc(C(=O)N[C@@H]4c5ccccc5OC[C@@]4(C)O)cc32)C(=N)N1 (stereo partly drawn) [Example 161, 8-(4,4-diethyl-2-imino-6-oxotetrahydropyrimidin-1(2H)-yl)-N-((3S,4R)-3-hydroxy-3-methylchroman-4-yl)-5,6,7,8-tetrahydronaphthalene-2-carboxamide] | 0.8 |
| CC[C@]1(C)CC(=O)N([C@H]2c3cc(C(=O)N[C@@H]4c5ccccc5OC(C)(C)[C@H]4O)ccc3C[C@H]2C)C(=N)N1 [Example 168, (2R,3R)-3-[(4R)-4-ethyl-2-imino-4-methyl-6-oxo-hexahydropyrimidin-1-yl]-N-[(3S,4R)-3-hydroxy-2,2-dimethyl-chroman-4-yl]-2-methyl-indane-5-carboxamide] | 0.4 |
| CC[C@]1(C)CC(=O)N([C@H]2c3cc(C(=O)N[C@@H]4c5ccccc5OC(C)(C)[C@H]4O)ccc3C[C@@H]2C)C(=N)N1 [Example 169, (2S,3R)-3-[(4R)-4-ethyl-2-imino-4-methyl-6-oxo-hexahydropyrimidin-1-yl]-N-[(3S,4R)-3-hydroxy-2,2-dimethyl-chroman-4-yl]-2-methyl-indane-5-carboxamide] | 0.3 |
| CC[C@]1(C)CC(=O)N([C@@H]2C[C@@H](C)c3ccc(C(=O)N[C@@H]4c5ccccc5OC(C)(C)[C@H]4O)cc32)C(=N)N1 [Example 171, (1R,3R)-3-[(4R)-4-ethyl-2-imino-4-methyl-6-oxo-hexahydropyrimidin-1-yl]-N-[(3S,4R)-3-hydroxy-2,2-dimethyl-chroman-4-yl]-1-methyl-indane-5-carboxamide] | 0.7 |
| CC1(C)CC(=O)N([C@@H]2CCOc3ccc(C(=O)N[C@@H]4c5ccccc5OC(C)(C)[C@@]4(C)O)cc32)C(=N)N1 [Example 172, (4R)-N-[(3S,4R)-3-hydroxy-2,2,3-trimethyl-chroman-4-yl]-4-(2-imino-4,4-dimethyl-6-oxo-hexahydropyrimidin-1-yl)chromane-6-carboxamide] | 0.9 |

Same assay, conditions: parasite LDH growth assay, ring stage parasites, 72 hours incubation at 37° C.; read-out: EC50

| Structure (SMILES) | EC50 [nM] |
| --- | --- |
| CCC1(CC)CC(=O)N([C@H]2c3cc(C(=O)N[C@@H]4c5ccccc5C[C@H]4O)ccc3OCC2OC)C(=N)N1 (stereo partly drawn) [Example 72A, (3R,4S)-4-(4,4-diethyl-2-imino-6-oxotetrahydropyrimidin-1(2H)-yl)-N-((1R,2R)-2-hydroxy-2,3-dihydro-1H-inden-1-yl)-3-methoxychromane-6-carboxamide] | 0.5 |
| CCC1(CC)CC(=O)N([C@H]2c3cc(C(=O)N[C@@H]4c5ccccc5OC(C)(C)[C@H]4O)ccc3OC2(C)COC)C(=N)N1 (stereo partly drawn) [Example 73A, (2S,3S)-3-(4,4-diethyl-2-imino-6-oxotetrahydropyrimidin-1(2H)-yl)-N-((3S,4R)-3-hydroxy-2,2-dimethylchroman-4-yl)-2-(methoxymethyl)-2-methyl-2,3-dihydrobenzofuran-5-carboxamide] | 0.3 |
| CCC1(CC)CC(=O)N([C@H]2c3cc(C(=O)N[C@H]4CC(C)(C)Oc5ccccc54)ccc3OC2(C)COC)C(=N)N1 (stereo partly drawn) [Example 74A, (2S,3S)-3-(4,4-diethyl-2-imino-6-oxotetrahydropyrimidin-1(2H)-yl)-N-((S)-2,2-dimethylchroman-4-yl)-2-(methoxymethyl)-2-methyl-2,3-dihydrobenzofuran-5-carboxamide] | 0.3 |
| CCC1(CC)CC(=O)N([C@@H]2CCOc3ccc(C(=O)NC4c5ccccc5OC4(C)CO)cc32)C(=N)N1 (stereo partly drawn) [Example 176B, (4R)-4-(4,4-diethyl-2-imino-6-oxo-hexahydropyrimidin-1-yl)-N-[2-(hydroxymethyl)-2-methyl-3H-benzofuran-3-yl]chromane-6-carboxamide] | 7.8 |
